The subject of assay [1] is Amaranthus caudatus cotyledon/hypocotyl explants. The assay is described as follows: Amaranthus bioassay (betacyanin content). The settings on record: for Concentration with highest activity: 48 h dark; for Activity (%) [10^−5 mol · l^−1 BAP = 100%]: at concentration with highest activity. Type of assay: in vivo. On the procedure:
Standard Amaranthus bioassay was performed with several modifications. The seeds of Amaranthus caudatus var. atropurpurea were surface-sterilised in 10% N-chlorobenzenesulfonamide (w/v) for 10 min and washed 5 times in deionized water. They were placed in 15 cm Petri dishes containing paper tissues saturated with deionized water. After 72 h of cultivation at 25° C. in darkness, the roots of the seedlings were cut off. The explants, consisting of two cotyledons and hypocotyls, were placed in 5 cm Petri dishes on two layers of filter paper soaked in 1 ml of incubation medium containing 10 μmol NA2HPO4-KH2PO4, pH 6.8, 5 μmol tyrosine and the cytokinin to be tested. There were 20 explants per dish. The procedure was carried out under a green safe light in a darkroom. After a 48 h of incubation at 25° C. in darkness, betacyanin was extracted by freezing the explants in 4 ml […] acetic acid. The concentration of betacyanin was determined by comparing the absorbance at 537 nm and 620 nm as follows: ΔA=[…]-[…]. From the obtained data, the concentration with highest activity was selected for each compound tested. Relative activity of the compound at this concentration was calculated (Tab. 12). […] The values shown in table 8 are means of five replicates and the entire test was repeated twice. The cytokinins to be tested were dissolved in dimethylsulfoxide (DMSO) and the solution brought up to 10^-3M with distilled water. This stock was further diluted in the respective media used for the biotest to concentrations ranging from 10^-8M to 10^-4M. […] From the data obtained (FIG. 14) the maximum effective concentration of the tested compound was calculated as well as its relative effectiveness at this concentration (Table 12). […]

In the next assay the test system is HOS. The assay is described as follows: In vitro cytotoxic activity, Calcein AM assay, HOS. Format: cell-based. The settings on record: 72 hours.
Assay [2] concerns human erythroleukaemia K562. The assay is described as follows: In vitro cytotoxic activity, Calcein AM assay, K-562. Type of assay: cell-based. The note with it: 72 hours, read-out: IC 50 K-562. From the text:
(§1) One of the parameters used, as the basis for cytotoxicity assays, is the metabolic activity of viable cells. For example, a microtiter assay, which uses the Calcein AM, is now widely used to quantitate cell proliferation and cytotoxicity. For instance, this assay is used in drug screening programs and in chemosensitivity testing. Because only metabolically active cells cleave Calcein AM, these assays detect viable cells exclusively. The quantity of reduced Calcein AM corresponds to the number of vital cells in the culture.
(§2) Human T-lymphoblastic leukemia cell line CEM; promyelocytic HL-60 and monocytic U937 leukemias; breast carcinoma cell lines MCF-7; cervical carcinoma cells HELA; mouse fibroblasts NIH3T3; human erythroleukaemia K562 and human malignant melanoma cells G361 were used for routine screening of compounds. The cells were maintained in Nunc/Corning 80 cm^2 plastic tissue culture flasks and cultured in cell culture medium (DMEM with 5 g/l glucose, 2 mM glutamine, 100 U/ml penicillin, 100 μg/ml streptomycin, 10% fetal calf serum and sodium bicarbonate).
(§3) The cell suspensions that were prepared and diluted according to the particular cell type and the expected target cell density (10^4 cells per well based on cell growth characteristics) were added by pipette (80 μl) into 96/well microtiter plates. Inoculates were allowed a pre-incubation period of 24 hours at 37° C. and 5% CO2 for stabilisation. Four-fold dilutions of the intended test concentration were added at time zero in 20 μl aliquots to the microtiter plate wells. Usually, test compound was evaluated at six 4-fold dilutions. In routine testing, the highest well concentration was 166.7 μM, but it can be the matter of change dependent on the agent. All drug concentrations were examined in duplicates. Incubations of cells with the test compounds lasted for 72 hours at 37° C., in 5% CO2 atmosphere and 100% humidity. At the end of incubation period, the cells were assayed by using the Calcein AM. Ten microliters of the stock solution were pipetted into each well and incubated further for 1 hours. Fluorescence (FD) was measured with the Labsystem FIA Reader Fluoroscan Ascent (UK). The tumour cell survival (GI50) was calculated using the following equitation: GI50=(FDdrug exposed well/mean FDcontrol wells)×100%. The GI50 value, the drug concentration lethal to 50% of the tumour cells, was calculated from the obtained dose response curves (FIG. 3).

Assay [3] concerns breast carcinoma cell lines MCF-7. The assay is described as follows: In vitro cytotoxic activity, Calcein AM assay, MCF7. Type of assay: cell-based, human. The note with it: 72 hours, read-out: IC 50 MCF7.
From the text: as §1, §2, §3

Assay [4] has as its system Human T-lymphoblastic leukemia cell line CEM. Nature of the assay: In vitro cytotoxic activity, Calcein AM assay, CEM. Type of assay: cell-based. The settings on record: 72 hours.
From the text: as §1, §2, §3

A further assay deals with promyelocytic HL-60. The assay is described as follows: In vitro cytotoxic activity, Calcein AM assay, HL60. The settings on record: 72 hours, read-out: IC 50 HL60. Format: cell-based, human.
From the text: as §1, §2, §3

The subject of a further assay is mouse fibroblasts NIH3T3. The assay is described as follows: In vitro cytotoxic activity, Calcein AM assay, NIH-3T3. Type of assay: cell-based. The settings on record: 72 hours, read-out: IC 50 NIH-3T3.
From the text: as §1, §2, §3

With `O=[N+]([O-])c1cccc(CNc2ncnc3c2ncn3[C@@H]2O[C@H](CO)[C@@H](O)[C@H]2O)c1` [3-nitrobenzylamino, 6-(3-nitrobenzylamino)purine riboside], in assay [1], the “Concentration with highest activity” value is given as 10^−4 mol · l^−1 and the “Activity (%) [10^−5 mol · l^−1 BAP = 100%]” value (from here on “Activity (%)”) is 66 ± 7%.

With `CSc1nc(NCc2ccccc2F)c2ncn([C@@H]3O[C@H](CO)[C@@H](O)[C@H]3O)c2n1` [R2 = SCH3,2-fluorobenzylamino], the IC50 is over 167 µM with HOS; 42 µM in assay [2]; over 167 µM in assay [3]; 9.7 µM in assay [4]; 11.4 µM in the assay on promyelocytic HL-60.

Take `Nc1nc(NCc2ccc(F)cc2)c2ncn([C@@H]3O[C@H](CO)[C@@H](O)[C@H]3O)c2n1` [R2 = NH2,4-fluorobenzylamino]: the IC50 with HOS is 43 µM; in assay [2] it was 13 µM; in assay [3], 25 µM; with mouse fibroblasts NIH3T3, over 167 µM; in assay [4], 12.1 µM; in the assay with promyelocytic HL-60 it was 2.9 µM.

With `Nc1nc(NCc2cccc(Cl)c2)c2ncn([C@@H]3O[C@H](CO)[C@@H](O)[C@H]3O)c2n1` [R2 = NH2,3-chlorobenzylamino], the IC50 was over 167 µM in the assay with HOS; 43 µM in assay [2]; over 167 µM in assay [3]; over 167 µM with mouse fibroblasts NIH3T3; 10.2 µM in assay [4]; 5.8 µM in the assay with promyelocytic HL-60.

Turning to `O=[N+]([O-])c1ccc(CNc2ncnc3c2ncn3[C@@H]2O[C@H](CO)[C@@H](O)[C@H]2O)cc1` [4-nitrobenzylamino, 6-(4-nitrobenzylamino)purine riboside], in assay [1], the “Concentration with highest activity” value was 10^−4 mol · l^−1 and the “Activity (%)” value was 25 ± 3%.

In the case of `Nc1nc(NCc2ccccc2F)c2ncn([C@@H]3O[C@H](CO)[C@@H](O)[C@H]3O)c2n1` [R2 = NH2,2-fluorobenzylamino], the IC50 is over 167 µM with HOS; 45 µM in assay [2]; over 167 µM in assay [3]; 14.5 µM in assay [4]; 8.7 µM in the assay on promyelocytic HL-60.

With `COc1ccc(CNc2ncnc3c2ncn3[C@@H]2O[C@H](CO)[C@@H](O)[C@H]2O)c(OC)c1` [2,4-dimethoxybenzylamino, 6-(2,4-dimethoxybenzylamino)purine riboside], the IC50 in the assay on HOS is over 167 µM; in assay [2], over 167 µM; in assay [3], over 167 µM; in the assay on mouse fibroblasts NIH3T3 it was over 167 µM; in assay [4], over 167 µM; with promyelocytic HL-60, 39 µM. Moreover, the “Concentration with highest activity” value in assay [1] is given as 10^−5 mol · l^−1. Also, in assay [1], the “Activity (%)” value was determined as 3 ± 3%.

Regarding `CSc1nc(NCc2cccc(Cl)c2)c2ncn([C@@H]3O[C@H](CO)[C@@H](O)[C@H]3O)c2n1` [R2 = SCH3,3-chlorobenzylamino], the IC50 in the assay on HOS was over 167 µM; in assay [2], 35 µM; in assay [3] it was over 167 µM; in the assay on mouse fibroblasts NIH3T3, over 167 µM; in assay [4] it was 13.2 µM; with promyelocytic HL-60, 6.1 µM.

Consider `CSc1nc(NCc2ccccc2Cl)c2ncn([C@@H]3O[C@H](CO)[C@@H](O)[C@H]3O)c2n1` [R2 = SCH3,2-chlorobenzylamino], for which the IC50 was over 167 µM in the assay on HOS; 78 µM in assay [2]; over 167 µM in assay [3]; over 167 µM in the assay with mouse fibroblasts NIH3T3; 14.6 µM in assay [4]; 7.4 µM in the assay with promyelocytic HL-60.

Take `COc1cc(CNc2ncnc3c2ncn3[C@@H]2O[C@H](CO)[C@@H](O)[C@H]2O)cc(OC)c1` [3,5-dimethoxyxybenzylamino, 6-(3,5-dimethoxybenzylamino)purine riboside]: the IC50 is over 167 µM in the assay with HOS; over 167 µM in assay [2]; over 167 µM in assay [3]; over 167 µM in the assay with mouse fibroblasts NIH3T3; 18.8 µM with promyelocytic HL-60.

`OCC1OC(n2cnc3c(NCc4ccc(Cl)cc4)nc(Cl)nc32)C(O)C1O` (centres unmarked) [R2 = Cl, 4-chlorobenzylamino]: the IC50 was over 167 µM in the assay with HOS; 15 µM in assay [2]; over 167 µM in assay [3]; over 167 µM in the assay on mouse fibroblasts NIH3T3; 5.8 µM in assay [4]; 5 µM in the assay with promyelocytic HL-60.

Regarding `Nc1nc(NCc2ccccc2Cl)c2ncn(C3OC(CO)C(O)C3O)c2n1` (centres unmarked) [R2 = NH2,2-chlorobenzylamino], the IC50 with HOS is over 167 µM; in assay [2] it was 78 µM; in assay [3], over 167 µM; with mouse fibroblasts NIH3T3, over 167 µM; in assay [4], 24.7 µM; in the assay with promyelocytic HL-60, 10.3 µM.

On to `OCC1OC(n2cnc3c(NCc4ccccc4Cl)nc(Cl)nc32)C(O)C1O` (centres unmarked) [R2 = Cl, 2-chlorobenzylamino], for which the IC50 in the assay with HOS was over 167 µM; in assay [2] it was 61 µM; in assay [3] it was over 167 µM; in the assay with mouse fibroblasts NIH3T3, over 167 µM; in assay [4], 8.5 µM; in the assay with promyelocytic HL-60, 1.2 µM.

Take `OCC1OC(n2cnc3c(NCc4ccccc4F)nc(Cl)nc32)C(O)C1O` (centres unmarked) [R2 = Cl, 2-fluorobenzylamino]: the IC50 was over 167 µM with HOS; 30 µM in assay [2]; over 167 µM in assay [3]; 4.2 µM in assay [4]; 2.5 µM with promyelocytic HL-60.

As to `OC[C@H]1O[C@@H](n2cnc3c(NCc4cccc(Cl)c4)nc(Cl)nc32)[C@H](O)[C@@H]1O` [R2 = Cl, 3-chlorobenzylamino], the IC50 with HOS was over 167 µM; in assay [2], 28 µM; in assay [3], over 167 µM; in the assay with mouse fibroblasts NIH3T3, over 167 µM; in assay [4] it was 1.1 µM; in the assay with promyelocytic HL-60 it was 0.6 µM.

For `OC[C@H]1O[C@@H](n2cnc3c(NCc4ccc(F)cc4)nc(Cl)nc32)[C@H](O)[C@@H]1O` [R2 = Cl, 4-fluorobenzylamino], the IC50 in the assay on HOS is 19 µM; in assay [2], 5.8 µM; in assay [3], 12 µM; in the assay on mouse fibroblasts NIH3T3, over 167 µM; in assay [4] it was 1.5 µM; with promyelocytic HL-60, 0.7 µM.

The values are drawn from US8119614B2, “Substitution derivatives of N6-benzyladenosine, methods of their preparation, their use for preparation of drugs, cosmetic preparations and growth regulators, pharmaceutical preparations, cosmetic preparations and growth regulators containing these compounds” (Ustav Experimentalni Botaniky Akademie Ved Ceske Republiky, priority 2002, dated 2012).
